# Experimental data taken from PMC10144242, “Design, Synthesis, In Vitro, and In Silico Insights of 5-(Substituted benzylidene)-2-phenylthiazol-4(5H)-one Derivatives: A Novel Class of Anti-Melanogenic Compounds” (Molecules, 2023).
# Experiments:
# [1] = ABTS cation radical scavenging assay; details: 100 µM, 2 min in the dark
# From the text: In addition, it has been reported that antioxidants that scavenge radicals may inhibit excess melanogenesis, because melanogenesis can be triggered by various radicals. Therefore, the 2,2′-azino-bis(3-ethylbenzothiazoline-6-sulfonic acid) (ABTS) cation radical scavenging abilities of 14 (Z)-BPT derivatives were studied using Trolox as a positive control. The ABTS cation radical is formed by transferring one electron of ABTS to K2S2O8 (potassium persulfate). To obtain an ABTS cation radical solution, a 7.4 mM ABTS solution was mixed with 2.6 mM potassium persulfate and kept in the dark at room temperature for 24 h. After adjusting the absorbance of the ABTS cation radical solution to 0.700 ± 0.03 at 732 nm, the ABTS cation radical solution was mixed with test samples (1–14 and Trolox) to a final concentration of 100 µM and kept for 2 min in the dark. The radical scavenging effects were assessed based on the absorbance measured at 732 nm.
# The antioxidant properties of (Z)-BPT derivatives 1–14 were assessed using the ABTS cation-free radical scavenging assay, as previously described. […] Then, methanol was used to dilute the ABTS cation-free radical solution to an absorbance of 0.70 ± 0.02 at 734 nm. […] The absorbance of each well was measured at 734 nm using a VersaMax ™ microplate reader (Molecular Devices, Sunnyvale, CA, USA). […]
# [2] = In vitro ROS scavenging assay (SIN-1, esterase, DCFH-DA); details: 40 µM, SIN-1-generated ROS
# Procedure: DCFH-DA, esterase, and SIN-1 were used to measure the scavenging activity of in vitro ROS generated by SIN-1. DCFH-DA reacts with esterase to generate DCFH, which in turn, reacts with the in vitro ROS generated by SIN-1 to produce DCF. To evaluate the in vitro ROS scavenging effects of the (Z)-BPT derivatives, a concentration of 40 µM was used. […] Three derivatives, 2, 3, and 14, exerted strong scavenging abilities against both intracellular ROS and in vitro ROS.
# The ROS scavenging abilities of (Z)-BPT derivatives 1–14 and Trolox were assessed in accordance with methods previously reported by Lebel and Bondy. Briefly, 50 mM phosphate buffer (pH 7.4) was dissolved with esterase (6 units/mL) and 1.25 mM DCFH-DA (2′,7′-dichlorodihydrofluorescein diacetate) from Molecular Probes (Eugene, OR, USA), maintained at 37 °C for 30 min, and kept on ice in the dark until use. […] Using a microplate reader (Berthold Advances GmbH & Co., Bad Wildbad, Germany), the fluorescence intensities of 2′,7′-dichlorofluorescein (DCF or oxidized DCFH) were examined at excitation and emission wavelengths of 485 nm and 535 nm, respectively. […]
# Figure 11 The scavenging effects of (Z)-BPT derivatives 1–14 on (A) intracellular ROS and (B) in vitro ROS. ROS levels were assessed using an assay with SIN-1 (an ROS generator) and DCFH-DA (an ROS-sensitive fluorescence probe). […]
smiles,measurement,setting,value
Cc1c(C)c2c(c(C)c1O)CCC(C)(C(=O)O)O2 (centres unmarked) [Trolox],ABTS cation radical scavenging (inhibition),[1],81%
same,in vitro ROS scavenging activity,[2],significantly decreased the enhanced ROS levels
